This note sets out measurements from patent US20230202985A1, “Indoles, Indazoles, and Related Analogs for Inhibiting YAP/TAZ-TEAD” (THE KATHOLIEKE UNIVERSITEIT LEUVEN, priority 2021, published 2023).

A word on the EC50: it is the concentration giving half of the maximal effect.

Common to all, as to assay type: cell-based
The subject of test [1] is YAP/TAZ-TEAD transcription. As to the kind of experiment: Reporter gene assay for measuring the inhibition of YAP/TAZ-TEAD transcription (TEAD-responsive element luciferase reporter in Hek293T cells). Conditions: Homo sapiens, HEK-293T; Hek293T cells transfected with TEAD-responsive luciferase reporter, 24 hours incubation. The protocol:
Hek293T cells are cultured in DMEM supplemented with 10% fetal bovine serum, Sodium pyruvate, Sodium bicarbonate, L-glutamine. The cells are harvested and transiently transfected with TEAD-responsive element luciferase reporter. Transfected cells are plated in 384-wells plate containing pre-diluted compounds. After 24 hours incubation at 37° C./5% CO2, assay plates were cooled down to RT and levelled to an equal volume per well, prior to the addition of 25 uL luciferase substrate SteadyLite (Perkin Elmer)/well. The plate was shaken for 10 min at 600 rpm, centrifuged for 1 min at 500 rpm and measured with an Envision reader (PerkinElmer). The amount of relative light units produced by the TEAD reporter is used to calculated percent of inhibition.
The percent of reporter inhibition was calculated in the presence of a positive control inhibitor (100% inhibition) versus a condition with the presence of the vehicle basal activity of the reporter (0% inhibition). The ability of a test compound to inhibit this activity was determined as:
Percentage inhibition=[1−((RLU determined in the presence of vehicle−RLU determined for sample with test compound present) divided by (RLU determined in the presence of vehicle−RLU determined for sample with positive control inhibitor))]*100
The activities of example compounds tested are depicted in Table 6. The activity ranges A, B and C refer to IC50 values in the reporter gene assay as follows: “A”: IC50<1 μM; “B”: 1 μM≤IC50≤20 μM and “C”: IC50>20 μM; NT=not tested.

In another test the test system is NCI-H226. As to the kind of experiment: Mesothelioma cell line proliferation assay (ATPlite), NCI-H226. The following applies: Homo sapiens, 144 h; NCI-H226 cells, 6 days with compound, cell viability by ATPlite. The protocol: (§1) Mesothelioma cell lines, NCI-H226 and NCI-H2052 (all sourced from the ATCC cell culture collection) are plated in 96-well plates (Corning® 96 Well White Polystyrene Microplate clear flat bottom, white polystyrene (TC-Treated)), at 1500 cells/well in full medium (RPMI 1640 ATCC modification with L-glutamine, HEPES, Phenol Red, Sodium Pyruvate, High glucose, Low sodium bicarbonate and 10% fetal bovine serum). Cells are incubated overnight at 37° C. in an incubator with 5% CO2. Then compounds, dissolved in DMSO, are added in dose-response. Cells are incubated with compound dilutions for another 6 days at 37° C. in an incubator with 5% CO2. Cell viability is quantitated using the ATPlite kit (Perkin-Elmer) and the luminescence is read-out using an Envision instrument (Perkin-Elmer). The amount of relative light units produced using the ATPlite kit is used to calculated percent of inhibition.
(§2) The activities of some example compounds are depicted in Table 7. The activity ranges A, B and C refer to EC50 values in the mesothelioma cell line proliferation assay as described as follows: “A”: EC50<1 μM; “B”: 1 μM≤EC50≤10 μM and “C”: EC50>10 μM; NT: not tested.
In general terms: Cellular ATP, detected with luciferase, serves as a proxy for viable cell number.

In the next test the test system is NCI-H2052. Nature of the test: Mesothelioma cell line proliferation assay (ATPlite), NCI-H2052. Conditions: Homo sapiens, 144 h; NCI-H2052 cells, 6 days with compound, cell viability by ATPlite. On the procedure:
as §1, §2

Take `C=CC(=O)NCc1nn(-c2ccc(C(F)(F)F)cc2)c2ccc(OCC3CCOC3)cc12` (racemic) [compound 46, N-[[5-[[rac-tetrahydrofuran-3-yl]methoxy]-1-[4-(trifluoromethyl)phenyl]indazol-3-yl]methyl]prop-2-enamide]: the EC50 (in test [1]; in the test with NCI-H226; with NCI-H2052) was less than 1000 nM in each case.

For `C=CC(=O)NCc1nn(-c2ccc(C(F)(F)F)cc2)c2ccc(OC[C@H]3CCOC3)cc12` (single isomer, unassigned) [compound 47], the EC50 (in test [1]; in the test on NCI-H226; in the test on NCI-H2052) was less than 1000 nM each time.

Regarding `C=CC(=O)NCc1nn(-c2ccc(C(F)(F)F)cc2)c2ccc(OC[C@@H]3CCOC3)cc12` (single isomer, unassigned) [compound 48], the EC50 (in test [1]; with NCI-H226; with NCI-H2052) was less than 1000 nM throughout.

In the case of `C=CC(=O)NCc1nn(-c2ccc(OC(F)(F)F)cc2)c2ccccc12` [Cpd. No. 4, N-((1-(4-(trifluoromethoxy)phenyl)-1H-indazol-3-yl)methyl)acrylamide], the EC50 (in test [1]; in the test with NCI-H226; with NCI-H2052) was less than 1000 nM in each case.

For `C=CC(=O)NCc1nn(-c2ccc(C(F)(F)F)cc2)c2ccc(OCC#N)cc12` [Cpd. No. 43, N-[[5-(cyanomethoxy)-1-[4-(trifluoromethyl)phenyl]indazol-3-yl]methyl]prop-2-enamide], the EC50 (in test [1]; in the test on NCI-H226; with NCI-H2052) was less than 1000 nM each time.

`C=CC(=O)NCc1nn(-c2ccc(C(F)(F)F)cc2)c2ccccc12` [compound 1, N-((1-(4-(trifluoromethyl)phenyl)-1H-indazol-3-yl)methyl)acrylamide]: the EC50 (in test [1]; in the test on NCI-H226; in the test with NCI-H2052) was less than 1000 nM each time.

`CNC(=O)Cc1cn2cc(Nc3ccccc3)cc(-c3ccn(C)n3)c2n1` [compound 39, N-methyl-2-(8-(1-methyl-1H-pyrazol-3-yl)-6-(phenylamino)imidazo[1,2-a]pyridin-2-yl)acetamide] showed a concentration giving a half-maximal response (EC50) in test [1] of more than 20000 nM.

Turning to `C=CC(=O)NCc1nn(-c2ccc(C(F)(F)F)cc2)c2ccncc12` [compound 41, N-((1-(4-(trifluoromethyl)phenyl)-1H-pyrazolo[4,3-c]pyridin-3-yl)methyl)acrylamide], the EC50 in test [1] is less than 1000 nM.

The compound `CS(=O)(=O)NCc1nn(-c2ccc(C(F)(F)F)cc2)c2ccc(OCC#N)cc12` [compound 42, N-[[5-(cyanomethoxy)-1-[4-(trifluoromethyl)phenyl]indazol-3-yl]methyl]methanesulfonamide] had an EC50 in test [1] of more than 20000 nM.

`C=CC(=O)NCc1nn(-c2ccc(C(F)(F)F)cc2)c2ccc(Oc3cc(=O)[nH]c(=O)n3C)cc12` [compound 51, N-[[5-(3-methyl-2,6-dioxo-pyrimidin-4-yl)oxy-1-[4-(trifluoromethyl)phenyl]indazol-3-yl]methyl]prop-2-enamide] showed an EC50 in test [1] of less than 1000 nM.

`CS(=O)(=O)NCc1nn(-c2ccc(C(F)(F)F)cc2)c2ccc(OCc3cc[nH]n3)cc12` [compound 52, N-[[5-(1H-pyrazol-3-ylmethoxy)-1-[4-(trifluoromethyl)phenyl]indazol-3-yl]methyl]methanesulfonamide] showed an EC50 in test [1] of 1000 to 20000 nM.

For the compound `CCC(=O)NCc1nn(-c2ccc(C(F)(F)F)cc2)c2ccc(Oc3cc(=O)[nH]c(=O)n3C)cc12` [compound 53, N-[[5-(3-methyl-2,6-dioxo-pyrimidin-4-yl)oxy-1-[4-(trifluoromethyl)phenyl]indazol-3-yl]methyl]propanamide], the EC50 in test [1] was more than 20000 nM.

As for `CCC(=O)NCc1nn(-c2ccc(C(F)(F)F)cc2)c2ccc(OCc3ccccc3)cc12` [compound 55, N-[[5-benzyloxy-1-[4-(trifluoromethyl)phenyl]indazol-3-yl]methyl]propanamide], the EC50 in test [1] was more than 20000 nM.

In turn, `CS(=O)(=O)NCc1nn(-c2ccc(C(F)(F)F)cc2)c2ccc(OCc3ccccc3)cc12` [compound 56, N-[[5-benzyloxy-1-[4-(trifluoromethyl)phenyl]indazol-3-yl]methyl]methanesulfonamide] came in with an EC50 in test [1] of 1000 to 20000 nM.

`N#CCS(=O)(=O)NCc1nn(-c2ccc(C(F)(F)F)cc2)c2ccccc12` [compound 57, 1-cyano-N-[[1-[4-(trifluoromethyl)phenyl]indazol-3-yl]methyl]methanesulfonamide] came in with an EC50 in test [1] of 1000 to 20000 nM.

For the compound `Cn1c(Oc2ccc3c(c2)c(CNS(C)(=O)=O)nn3-c2ccc(C(F)(F)F)cc2)cc(=O)[nH]c1=O` [compound 60, N-[[5-(3-methyl-2,6-dioxo-pyrimidin-4-yl)oxy-1-[4-(trifluoromethyl)phenyl]indazol-3-yl]methyl]methanesulfonamide], in test [1], the EC50 is more than 20000 nM.

Take `CS(=O)(=O)NCc1nn(-c2ccc(C(F)(F)F)cc2)c2cc(OC3CC3)ccc12` [compound 61, N-[[6-(cyclopropoxy)-1-[4-(trifluoromethyl)phenyl]indazol-3-yl]methyl]methanesulfonamide]: the EC50 in test [1] lay in the range of 1000 to 20000 nM.

For the compound `CCC(=O)NCc1nn(-c2ccc(C(F)(F)F)cc2)c2cc(OC3CC3)ccc12` [compound 62, N-[[6-(cyclopropoxy)-1-[4-(trifluoromethyl)phenyl]indazol-3-yl]methyl]propanamide], the EC50 in test [1] was more than 20000 nM.

Take `C#CCOc1ccc2c(c1)c(CNC(=O)CC)nn2-c1ccc(C(F)(F)F)cc1` [compound 64, N-[[5-prop-2-ynoxy-1-[4-(trifluoromethyl)phenyl]indazol-3-yl]methyl]propanamide]: in test [1], the EC50 was more than 20000 nM.

The compound `C#CCOc1ccc2c(c1)c(CNS(C)(=O)=O)nn2-c1ccc(C(F)(F)F)cc1` [compound 65, N-[[5-prop-2-ynoxy-1-[4-(trifluoromethyl)phenyl]indazol-3-yl]methyl]methanesulfonamide] yielded an EC50 in test [1] of more than 20000 nM.

The compound `CCC(=O)NCc1nn(-c2ccc(C(F)(F)F)cc2)c2ccc(OCC3CC3)cc12` [compound 67, N-[[5-(cyclopropylmethoxy)-1-[4-(trifluoromethyl)phenyl]indazol-3-yl]methyl]propanamide] registered an EC50 in test [1] of more than 20000 nM.

The compound `CS(=O)(=O)NCc1nn(-c2ccc(C(F)(F)F)cc2)c2ccc(OCC3CC3)cc12` [compound 68, N-[[5-(cyclopropylmethoxy)-1-[4-(trifluoromethyl)phenyl]indazol-3-yl]methyl]methanesulfonamide] displayed an EC50 in test [1] of less than 1000 nM.

The compound `O=C(O)COc1cccc2c1cnn2-c1ccc(C(F)(F)F)cc1` [compound 69, 2-[1-[4-(trifluoromethyl)phenyl]indazol-4-yl]oxyacetic acid] had an EC50 in test [1] of more than 20000 nM.

`C=C(CNc1nn(-c2ccc(C(F)(F)F)cc2)c2ccccc12)C(=O)O` [compound 70, 2-[[[1-[4-(trifluoromethyl)phenyl]indazol-3-yl]amino]methyl]prop-2-enoic acid]: the EC50 in test [1] is less than 1000 nM.

In the case of `CC(=O)NCc1nn(-c2ccc(C(F)(F)F)cc2)c2ccc(C(F)(F)F)cc12` [compound 72, N-[[5-(trifluoromethyl)-1-[4-(trifluoromethyl)phenyl]indazol-3-yl]methyl]acetamide], in test [1], the EC50 lay within 1000 to 20000 nM.

Compound `CS(=O)(=O)NCc1nn(-c2ccc(C(F)(F)F)cc2)c2ccc(C(F)(F)F)cc12` [compound 73, N-[[5-(trifluoromethyl)-1-[4-(trifluoromethyl)phenyl]indazol-3-yl]methyl]methanesulfonamide] had an EC50 in test [1] of 1000 to 20000 nM.

Regarding `CC(=O)NCc1nn(-c2ccc(C(F)(F)F)cc2)c2cc(C(F)(F)F)ccc12` [compound 75, N-[[6-(trifluoromethyl)-1-[4-(trifluoromethyl)phenyl]indazol-3-yl]methyl]acetamide], the EC50 in test [1] was more than 20000 nM.

On to `CS(=O)(=O)NCc1nn(-c2ccc(C(F)(F)F)cc2)c2cc(C(F)(F)F)ccc12` [compound 76, N-[[6-(trifluoromethyl)-1-[4-(trifluoromethyl)phenyl]indazol-3-yl]methyl]methanesulfonamide], for which the EC50 in test [1] lay within 1000 to 20000 nM.
